This passage reports IC50 results from patent publication US6693102B2, “Pyridine-substituted pyrazolopyridine derivatives” (Bayer Aktiengesellschaft, priority 2000, dated 2004).

The assay concerns rabbit aorta rings. Description: Vasorelaxant action in vitro (phenylephrine-contracted rabbit aorta rings). Particulars: Oryctolagus cuniculus, phenylephrine contraction, 37° C., 0.1% DMSO. As to the method: Rabbits are stunned by a blow to the neck and exsanguinated. The aorta is removed, freed from adherent tissue, divided into rings 1.5 mm wide and individually transferred under a pretension to 5 ml organ baths containing carbogen-aerated Krebs-Henseleit solution of the following composition (mM) at 37° C.: NaCl: 119; KCl: 4.8; CaCl2×2H2O: 1; MgSO4×7H2O; 1.4; KH2PO4: 1.2; NaHCO3:25; Glucose: 10. The contractile force is determined using Statham UC2 cells, amplified and digitalized by means of A/D converters (DAS-1802 HC, Keithley Instruments Munich), and recorded in parallel on linear recorders. To produce a contraction, phenylephrine is added to the bath cumulatively in increasing concentration. After several control cycles, the substance to be investigated is investigated in each further passage in increasing dose in each case and the height of the contraction is compared with the height of the contraction reached in the last previous passage. From this, the concentration is calculated which is necessary in order to reduce the height of the control value by 50% (IC50). The standard administration volume is 5 μl and the proportion of DMSO in the bath solution corresponds to 0.1%.

Usually IC50 stands for the concentration that gives 50% inhibition.

For `Nc1nc(-c2nn(Cc3ccccc3F)c3ncccc23)nc(N)c1-c1ccncc1` [Example 4, 2-[1-(2-fluorobenzyl)-1H-pyrazolo[3,4-b]pyridine-3-yl]-5-(4-pyridinyl)-4,6-pyrimidine diamine], the IC50 stood at 1210 nM. For `Nc1nc(-c2nn(Cc3ccccc3F)c3ncccc23)ncc1-c1ccncc1` [Example 1, 2-[1-[(2-Fluorophenyl)methyl]-1H-pyrazolo[3,4-b]pyridin-3-yl]-5-(4-pyridinyl)-4-pyrimidinamine] the value was 660 nM.
